Among the data in patent publication US7582611B2, “Motilide compounds” (Pfizer Inc., priority 2005, dated 2009) are EC50 and MIC values, retold here.

≈ marks a conversion by molar mass, not a printed value.

One assay concerns the target T1, Motilin Receptor (Oryctolagus cuniculus, UniProt G1T803).
T1 construct: strips of longitudinal smooth muscle were sliced from the segments; from tissue; host or cells: rabbit duodenum longitudinal smooth muscle strips
In words: Tissue based assay for motilin agonist potency (rabbit duodenum contractility). The format is cell-based. The note with it: rabbit duodenum strips, contraction normalized to 1 μM carbachol; read-out: Motilin Receptor Agonist Activity (EC50). The method, then:
The motilin agonist potencies of compounds of this invention were evaluated using a tissue based assay, using rabbit duodenum tissue-based contractility assay, generally following the procedure of Depoortere et al., J. Gastrointestinal Motility, 1, 150-159 (1989), the disclosure of which is incorporated herein by reference. Briefly, this method measures the ability of a compound to induce contractions in rabbit duodenal tissue, a motilin receptor-bearing tissue contractilely responsive to motilin.
Strips of rabbit duodenum were tested and qualified for use in the assay by as follows. Segments of rabbit duodenum, 20-30 cm distal to the pylorus were split longitudinally. The mucosa was removed and 2×2×15 mm strips of longitudinal smooth muscle were sliced from the segments. The strips were bathed in oxygenated Krebs solution at 37° C., with 1.5 g of tension, and contractions measured auxotonically.
The carbachol was then washed away by changing the organ bath buffer twice. The strips were washed again 20±5 minutes following the carbachol contraction. Following this last wash a dose response study was initiated within 10±5 min. Each compound tested was dissolved in dimethylsulfoxide (DMSO) to a final concentration of 10 mM. A series of seven 10× serial dilutions in water was prepared, so that the concentration of the seventh serial dilution was 1.0×10^−6 mM. The first through fifth serial dilutions of the compound were applied, starting with 200 μL of the most dilute solution. After each application, there was a wait of 2±0.5 min, until the response was stable, before the application of the next dose (the next higher concentration serial dilution). The dose was increased in 10-fold increments until a small response was observed. Subsequent doses were the increased in 2- to 5-fold increments, until the maximum response was obtained. At 2±0.5 min after the last drug addition, the strips were dosed with 1 μM carbachol.
The EC50 (concentration producing a half-maximal effect) was calculated as follows. The basal tension was subtracted from the compound-induced tension for each reading. The data points were normalized against the response obtained from 1 μM carbachol at the end of the experiment. The concentration of compound was plotted against the response and fitted to the following equation: R=(Rmax·C)/(EC50+C) where R is the contraction response, Rmax is the maximal contraction response, and C is the concentration of compound. Both R and Rmax are expressed as a fraction of the 1 μM carbachol contraction and range from 0 to 1.

Assay [1] has as its system Streptococcus pneumoniae ATCC 6301. In words: Evaluation of antibacterial activity (MIC, serial dilutions on 96-well microtiter plates). It counts as cell-based. The note with it: ATCC6301, read-out: Antibacterial Activity (MIC, μg/mL).

T1 sequence (G1T803 1-400): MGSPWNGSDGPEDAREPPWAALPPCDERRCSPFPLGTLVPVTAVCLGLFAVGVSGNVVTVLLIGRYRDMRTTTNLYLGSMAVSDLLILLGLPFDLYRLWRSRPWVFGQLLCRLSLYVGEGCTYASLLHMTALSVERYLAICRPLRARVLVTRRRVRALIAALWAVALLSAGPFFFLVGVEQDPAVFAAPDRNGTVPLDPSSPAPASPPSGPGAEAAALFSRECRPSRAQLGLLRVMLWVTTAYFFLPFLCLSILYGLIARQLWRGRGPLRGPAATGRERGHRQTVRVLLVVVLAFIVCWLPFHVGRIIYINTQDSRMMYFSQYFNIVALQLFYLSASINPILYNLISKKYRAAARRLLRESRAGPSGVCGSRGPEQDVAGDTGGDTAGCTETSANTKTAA

For the molecule `CCOC(=O)NCCO[C@@H]1[C@H](C)[C@@H](O)[C@](C)(O)[C@@H](CC)OC(=O)[C@H](C)[C@@H](O[C@H]2C[C@@](C)(OC)[C@@H](O)[C@H](C)O2)[C@H](C)[C@@H](O[C@@H]2O[C@H](C)C[C@H](N(C)C(C)C)[C@H]2O)[C@](C)(O)C[C@H]1C` [Compound A-64], the EC50 at Motilin Receptor stood at 100 nM. Besides, the MIC in assay [1] worked out at 64 µg/mL (≈ 72.8 µM). With `CC[C@H]1OC(=O)[C@H](C)[C@@H](O[C@H]2C[C@@](C)(OC)[C@@H](O)[C@H](C)O2)[C@H](C)[C@@H](O[C@@H]2O[C@H](C)C[C@H](N(C)C(C)C)[C@H]2O)[C@](C)(O)C[C@@H](C)[C@H](OCC(=O)O)[C@H](C)[C@@H](O)[C@]1(C)O` [Compound A-56], the EC50 at Motilin Receptor stood at 150 nM. Further, in assay [1], the MIC stood at 128 µg/mL (≈ 156 µM). In the case of `CC[C@H]1OC(=O)[C@H](C)[C@@H](O[C@H]2C[C@@](C)(OC)[C@@H](O)[C@H](C)O2)[C@H](C)[C@@H](O[C@@H]2O[C@H](C)C[C@H](N(C)C(C)C)[C@H]2O)[C@](C)(O)C[C@@H](C)[C@H](OCC(=O)NC)[C@H](C)[C@@H](O)[C@H]1C` [Compound A-71], at Motilin Receptor, the EC50 came out at 90 nM. The MIC in assay [1] was > 128 µg/mL. For `CC[C@H]1OC(=O)[C@H](C)[C@@H](O[C@H]2C[C@@](C)(OC)[C@@H](O)[C@H](C)O2)[C@H](C)[C@@H](O[C@@H]2O[C@H](C)C[C@H](N(C)C(C)C)[C@H]2O)[C@](C)(O)C[C@@H](C)[C@H](OCC(=O)NC2CCOCC2)[C@H](C)[C@@H](O)[C@]1(C)O` [Compound A-33], at Motilin Receptor, the EC50 was found to be 120 nM. Moreover, in assay [1], the MIC is > 128 µg/mL. On to `CC[C@H]1OC(=O)[C@H](C)[C@@H](O[C@H]2C[C@@](C)(OC)[C@@H](O)[C@H](C)O2)[C@H](C)[C@@H](O[C@@H]2O[C@H](C)C[C@H](N(C)C3CCC3)[C@H]2O)[C@](C)(O)C[C@@H](C)[C@H](NS(C)(=O)=O)[C@H](C)[C@@H](O)[C@]1(C)O` [Compound A-39], for which the EC50 on Motilin Receptor was 280 nM. Moreover, the MIC in assay [1] is > 128 µg/mL.

As for `CC[C@H]1OC(=O)[C@H](C)[C@@H](O[C@H]2C[C@@](C)(OC)[C@@H](O)[C@H](C)O2)[C@H](C)[C@@H](O[C@@H]2O[C@H](C)C[C@H](N(C)C3CCC3)[C@H]2O)[C@](C)(O)C[C@@H](C)[C@H](OC)[C@H](C)[C@@H](O)[C@]1(C)O` [Compound A-47], on Motilin Receptor, the EC50 is 220 nM. Take `CC[C@H]1OC(=O)[C@H](C)[C@@H](O[C@H]2C[C@@](C)(OC)[C@@H](O)[C@H](C)O2)[C@H](C)[C@@H](O[C@@H]2O[C@H](C)C[C@H](N(C)C(C)C)[C@H]2O)[C@](C)(O)C[C@@H](C)[C@H](OCCNC=O)[C@H](C)[C@@H](O)[C@]1(C)O` [Compound A-78]: the EC50 at Motilin Receptor stood at 31 nM. Still for that read-out and setting: the result for `CC[C@H]1OC(=O)[C@H](C)[C@@H](O[C@H]2C[C@@](C)(OC)[C@@H](O)[C@H](C)O2)[C@H](C)[C@@H](O[C@@H]2O[C@H](C)C[C@H](N(C)C(C)C)[C@H]2O)[C@](C)(O)C[C@@H](C)[C@H](OCC(=O)NOC)[C@H](C)[C@@H](O)[C@]1(C)O` [Compound A-69] reads 92 nM. For `CC[C@H]1OC(=O)[C@H](C)[C@@H](O[C@H]2C[C@@](C)(OC)[C@@H](O)[C@H](C)O2)[C@H](C)[C@@H](O[C@@H]2O[C@H](C)C[C@H](N(C)C(C)C)[C@H]2O)[C@](C)(O)C[C@@H](C)[C@H](OC)[C@H](C)[C@@H](O)[C@]1(C)O` [Compound A-1], at Motilin Receptor, the EC50 was 66 nM. Consider `CC[C@H]1OC(=O)[C@H](C)[C@@H](O[C@H]2C[C@@](C)(OC)[C@@H](O)[C@H](C)O2)[C@H](C)[C@@H](O[C@@H]2O[C@H](C)C[C@H](N(C)C(C)C)[C@H]2O)[C@](C)(O)C[C@@H](C)[C@H](OC(=O)NC)[C@H](C)[C@@H](O)[C@]1(C)O` [Compound A-79], for which the EC50 on Motilin Receptor worked out at 400 nM. `CC[C@H]1OC(=O)[C@H](C)[C@@H](O[C@H]2C[C@@](C)(OC)[C@@H](O)[C@H](C)O2)[C@H](C)[C@@H](O[C@@H]2O[C@H](C)C[C@H](N(C)C(C)C)[C@H]2O)[C@](C)(OC)C[C@@H](C)[C@H](OCC(=O)NC)[C@H](C)[C@@H](O)[C@]1(C)O` [Compound A-66]: the EC50 at Motilin Receptor came to 400 nM.
